This passage reports IC50 results from PubChem BioAssay AID2305 (GlaxoSmithKline (GSK), 2010).

This assay relates to P. falciparum 3D7 growth, pLDH absorbance. Put plainly: P. falciparum 3D7 growth inhibition, dose response, strain 3D7 (AID 2305).

SMILES strings stand for the structures.

`COc1ccc(CN2CCCN(Cc3ccc(C(=O)Nc4ccc(Cl)cc4)cc3)CC2)cc1` displayed an IC50 of 920 nM.

As for `CCCCc1ccc(NC(=O)Nc2cccc(CCNCc3ccccc3)c2)cc1`, the IC50 worked out at 880 nM.

Consider `COc1cc(C)ccc1N1CCN(CCCCNC(=O)c2ccc(NC(=O)c3ccc(Cl)cc3)cc2)CC1`, for which the IC50 was 700 nM.

Take `COc1ccc2nccc(NC(=O)C3(O)CCC(NCc4ncc5c(c4Cl)OCCO5)CC3)c2n1` (configuration not stated): the IC50 is 250 nM.

Compound `O=C(NCCc1ccccc1F)c1cc(Br)cc(N2CCN(c3ccncc3)CC2)c1` gave an IC50 of 760 nM.

As for `Clc1cc(Nc2ncnc3sc(C#C[C@H]4CCCN4)cc23)ccc1OCc1cccnc1Cl`, the IC50 is 570 nM.

Turning to `COc1ccccc1NC(=O)OC(COc1ccc(N)cc1)CN1CC=C(c2ccccc2)CC1` (configuration not stated), the IC50 is 1040 nM.

Turning to `Cc1cccc2[nH]c(-c3ccc(-c4ccc(CN5CCCCC5CO)cc4)cc3)nc12` (configuration not stated), the IC50 came to 810 nM.

The compound `COc1cc(NC(=O)/C=C/c2cccc3cc[nH]c23)ccc1OCCN(C(C)C)C(C)C` displayed an IC50 of 270 nM.

Compound `c1cc(CNC2Cc3ccc(-c4cccs4)cc3C2)cc(-n2ccnc2)c1` (configuration not stated) displayed an IC50 of 590 nM.

The compound `Cc1cnc(-c2ccc(NC(=O)c3coc4ccc(N5C[C@@H](C)N(C)[C@@H](C)C5)cc34)cc2)o1` had an IC50 of 650 nM.

Turning to `COc1cc(-c2nc(C(C)(C)CN)[nH]c2-c2ccncc2)ccc1Br`, the IC50 came to 770 nM.

`Cc1c(S(=O)(=O)Nc2cccc(CCN3CCCCC3CCN3CCCC3)c2)sc2ccc(Cl)cc12` (configuration not stated): the IC50 worked out at 930 nM.

In turn, `CCC(C)NCC(O)(c1ccc(Cl)cc1)c1ccc(Cl)cc1` (configuration not stated) came in with an IC50 of 840 nM.

`CC(=O)c1ccc(NC(=O)CSc2nc(-c3ccccc3Cl)ns2)cc1` registered an IC50 of 1130 nM.

Turning to `COc1ccc2nccc(N(C)CC3(O)CCN(CCc4ccc5c(c4)NC(=O)CS5)CC3)c2n1`, the IC50 turned out to be 140 nM.

Turning to `Cc1cc(Nc2cccc(C(F)(F)F)c2)nc(NCc2ccccc2)n1`, the IC50 turned out to be 150 nM.

The compound `CC(=O)c1cccc(S(=O)(=O)NCCCNc2nc3cc(C)cc(C)c3cc2C#N)c1` gave an IC50 of 910 nM.

For the compound `O=C(COc1ccc(Cl)cc1)N1CCC(CN2CCC(c3c[nH]c4ccccc34)CC2)CC1`, the IC50 worked out at 1100 nM.

On to `COc1ccc(Nc2c3ccc(Cl)cc3nc3ccc(OC)cc23)cc1`, for which the IC50 turned out to be 440 nM.

In turn, `CC(C)NCc1ccc(-c2ccc(CN3CCCC(c4ccccc4)C3)cc2)c(C(=O)NC2Cc3ccccc3C2)c1` (configuration not stated) displayed a half-maximal inhibitory concentration (IC50) of 990 nM.

Take `Cc1ccc2nc(-c3ccc(C=CC(=O)NC4CCN(Cc5ccccc5)CC4)cc3)[nH]c2c1`: the IC50 came to 680 nM.

Compound `Nc1ncnc2cc(-c3cccc(S(N)(=O)=O)c3)sc12` yielded an IC50 of 150 nM.

In the case of `Cc1ccc(C(C)C)c(Oc2ccc3nc(N)nc(N)c3c2)c1`, the IC50 came out at 10 nM.

The compound `O=C(Nc1ccc(Cn2nc(Cl)c(N3CCCNCC3)cc2=O)cc1)Nc1ccc(-c2ccccc2)cc1` gave an IC50 of 840 nM.

The compound `O=[N+]([O-])c1ccc2nc(Nc3cccc(C(F)(F)F)c3)c(Nc3cccc(C(F)(F)F)c3)nc2c1` came in with an IC50 of 480 nM.

`O=C(Nc1cccc(-c2cccc(-c3nc4ccc(F)cc4[nH]3)c2)c1)c1cnc[nH]1` had an IC50 of 460 nM.

The compound `CC(C)C1CCc2nc(N)nc(N)c2C1` (configuration not stated) returned an IC50 of 140 nM.

As for `Cc1noc(C)c1-c1cccc(CNCc2ccc(-c3cccc(-c4nc5ccc(C(F)(F)F)cc5[nH]4)c3)cc2)c1`, the IC50 came to 560 nM.

In turn, `CCN(C)c1cc(C(=O)N[C@@H](Cc2ccccc2)[C@H](O)CNC(C)(C)c2cccc(OC)c2)cc(N2CCCC2=O)c1` returned an IC50 of 70 nM.

Turning to `Cc1nc(/N=C(\N)NC(=O)NC2CCCCC2)nc2ccccc12`, the IC50 turned out to be 790 nM.

`Cc1cc(N[C@@H](Cc2ccccc2)C(=O)NC2CCCC2)nc(Nc2ccccc2)n1` had an IC50 of 830 nM.

Turning to `O=C(NCCCCN1CCC(c2nc3ccccc3s2)CC1)c1cc2ccccc2[nH]1`, the IC50 was 1020 nM.

As for `CC[C@H]1CN(CCCC(=O)c2ccccc2)CC[C@H]1CCCc1ccnc2ccc(OC(=O)c3ccccc3)cc12`, the half-maximal inhibitory concentration (IC50) stood at 830 nM.

`CC1(C)[C@H]2CC[C@]1(C)CN(CC(O)Cn1c3ccccc3c3cc(I)ccc31)C2` (some centres not stated) showed an IC50 of 1160 nM.

The compound `COc1cc(Nc2nccc(N3CCC(NC(=O)Nc4cc(C)ccc4C)C3)n2)cc(OC)c1OC` (configuration not stated) showed an IC50 of 1120 nM.

As to `CCNc1cc(C(=O)N[C@@H](Cc2ccccc2)[C@H](O)CN[C@@H](C)c2ccccc2)cc(N2CCCC2=O)c1`, the IC50 turned out to be 670 nM.

Compound `Cc1ccc(NC(=O)Nc2ccc(Cl)cc2)cc1-c1ccc(C(=O)Nc2ccncc2)cc1` showed an IC50 of 530 nM.

For `Cc1cc(N)c2cc(NC(=O)/C=C/c3ccccc3Cl)ccc2n1`, the IC50 is 400 nM.

Compound `Cc1cccc2[nH]c(-c3ccc(-c4cccc(CN5CCCC(O)C5)c4)s3)nc12` (configuration not stated) yielded an IC50 of 940 nM.

Consider `CN(C)CCCOc1ccc(CCCCc2ccc(Cl)cc2C(=O)c2ccccc2)cc1`, for which the IC50 was 1030 nM.

Consider `CCN(CC)CCCC(C)Nc1cc(C=Cc2ccc([N+](=O)[O-])cc2)nc2ccc(OC)cc12` (configuration not stated), for which the IC50 was found to be 570 nM.

For the compound `CC1(C)N=C(N)N=C(N)N1OCCCOc1cccc(C(=O)O)c1`, the IC50 was 40 nM.

As for `Cc1cccc2[nH]c(-c3cccc(-c4ccc(NC(=O)Nc5ccsc5)cc4)c3)nc12`, the IC50 worked out at 120 nM.

For the compound `Cc1cccc2[nH]c(-c3cccc(-c4cccc(C(=O)NCc5nccn5C)c4)c3)nc12`, the IC50 came to 530 nM.

Consider `Cc1ccc(C(=O)Nc2ccc(Nc3ccnc4cc(-c5nccs5)ccc34)cc2O)cc1`, for which the IC50 amounted to 50 nM.

`N#Cc1ccc(-c2cnc3ccc(NCc4ccc(S(N)(=O)=O)cc4)nn23)cc1` displayed an IC50 of 780 nM.

For the compound `CC(C)(C)c1ccc(-c2cc3c(ccc4nc(N)nc(N)c43)[nH]2)cc1`, the IC50 is 110 nM.

In the case of `O=C(CCC1CCCC1)N(Cc1ccc(-c2ccc(CNCCc3ccccn3)cc2)cc1)CC1CCCCN1` (configuration not stated), the IC50 amounted to 1150 nM.

`Cc1ccc(O)c(Nc2c3c(c(C#N)c4nc5ccccc5n24)CCC3)c1` returned an IC50 of 1250 nM.

For the compound `CCCC1N=C(N)N=C(N)N1c1cccc([N+](=O)[O-])c1` (configuration not stated), the IC50 is 760 nM.

With `O=C(Cc1ccccc1)NC(CCN1CCC(N(C2CC2)S(=O)(=O)c2cccc(C(F)(F)F)c2)CC1)c1ccc(Cl)c(Cl)c1` (configuration not stated), the IC50 came to 1270 nM.

For `CCCc1nc2c(N3CC(NC(=O)/C=C/c4ccccc4)C3)cccc2n1C1CC1`, the IC50 worked out at 550 nM.

`Cc1cc(NCCC(=O)NCCOc2ccccc2)nc(NCCc2ccccc2)n1` showed an IC50 of 1230 nM.

As to `CCCCc1ccccc1NS(=O)(=O)c1ccc(OC)c(N2CCNCC2)c1`, the IC50 was found to be 1380 nM.

In the case of `O=[N+]([O-])c1ccc(CNCCCCCCNCc2ccc([N+](=O)[O-])c3ccccc23)c2ccccc12`, the IC50 amounted to 790 nM.

Consider `Cc1nnc(Sc2ncnc3scc(-c4ccc(F)cc4)c23)s1`, for which the IC50 is 810 nM.

Turning to `Cc1cc(NC(=O)Nc2cccc(N(C)C)c2)c2ccccc2n1`, the IC50 worked out at 200 nM.

On to `O=S(=O)(Nc1ccc(CCN2CCCCC2CCN2CCCC2)cc1)c1cccc2cccnc12` (configuration not stated), for which the IC50 amounted to 1300 nM.

`COc1cc(Nc2nccc(N3CCC(NC(=O)C4COc5ccccc5O4)C3)n2)cc(OC)c1OC` (configuration not stated) came in with an IC50 of 920 nM.

Compound `CCNc1cc(C(=O)N[C@@H](Cc2ccccc2)[C@H](O)CNCc2cc(OC)cc(OC)c2)cc(N2CCCC2=O)c1` returned an IC50 of 740 nM.

On to `O=C(NCCCN1CCCC1=O)NCc1ccccc1`, for which the IC50 was found to be 820 nM.

Take `CC(C)NCc1ccc(-c2ccc(-c3nc4ccc(F)cc4[nH]3)cc2)cc1`: the IC50 was 210 nM.

As for `CC1CCc2sc(-c3nnc(SC(C)C(=O)N4CCCC4)o3)cc2C1` (configuration not stated), the IC50 is 880 nM.

Consider `CN1CCN(c2ccnc3ccc(NC(=O)c4ccc(Cl)c(Cl)c4)cc23)CC1`, for which the IC50 was found to be 710 nM.

As to `O=C(CCC1CCCC1)N(Cc1ccc(-c2ccc(CNCCc3ccccc3)cc2)cc1)C1CCCNC1` (configuration not stated), the IC50 worked out at 1220 nM.

In turn, `Cc1nc(-c2cccc(Nc3ccnc4cc(-c5nccs5)ccc34)c2)no1` showed an IC50 of 320 nM.

For `O=[N+]([O-])c1cccc(-n2nc(NCc3ccc(Cl)cc3)nc2-c2ccc(F)c(C(F)(F)F)c2)c1`, the IC50 is 240 nM.

As for `O=C(c1ccc(F)c2ccccc12)N1CCc2cc3nccc(N4CCN5CCC[C@H]5C4)c3cc21`, the IC50 is 1000 nM.

On to `CS(=O)(=O)CCNCc1cccc(-c2cc3c(Nc4ccc(OCc5cccc(F)c5)c(Cl)c4)ncnc3s2)c1`, for which the IC50 was determined as 200 nM.

`Cc1cc(N[C@@H](Cc2ccccc2)C(=O)NC2CCCC2)nc(NCCCOC(C)C)n1` registered an IC50 of 1480 nM.

Turning to `CC(C)N(Cc1ccc(-c2ccc(C(F)(F)F)cc2)cc1)C(=O)Cn1c(SCc2cccc(F)c2F)cc(=O)c2cc(CN3CCCCC3)ccc21`, the IC50 is 870 nM.

Compound `COc1ccc(CNC(=O)c2cnc3c(O)cccc3c2Nc2cccc(NC(=O)c3ccc(Cl)c(Cl)c3)c2)cc1` registered an IC50 of 600 nM.

`Cc1cccc(Nc2nccc(NCC(O)c3ccc(C(F)(F)F)cc3)n2)c1` (configuration not stated) registered an IC50 of 560 nM.

As for `O=C(Nc1ccc(Cl)c(Cl)c1)N1CCc2cc3nccc(N4CCN5CCC[C@H]5C4)c3cc21`, the IC50 is 630 nM.

On to `CCOC(=O)c1nc2ccc(SC3CCCCC3)cn2c1Br`, for which the half-inhibitory concentration (IC50) is 1060 nM.

The compound `O=C(NC1CCC(CN2CCC(c3c[nH]c4ccccc34)CC2)CC1)c1ccc(-c2ccccc2[N+](=O)[O-])o1` (configuration not stated) had an IC50 of 770 nM.

Take `CCc1cc(OC)ccc1C1CCN(CCCCNC(=O)c2ccc(NC(=O)c3ccc(Cl)cc3)cc2)CC1`: the IC50 turned out to be 1070 nM.

With `Cc1sc(NC(=O)c2ccc([N+](=O)[O-])cc2Cl)c(C(N)=O)c1C`, the IC50 is 930 nM.

In turn, `O=C(C=Cc1ccc(Br)cc1)NC1CCC(CN2CCC(c3c[nH]c4ccccc34)CC2)CC1` (configuration not stated) gave a half-inhibitory concentration (IC50) of 680 nM.

The compound `Cc1ccc(-n2cc(CNCCc3ncc(C)[nH]3)c(-c3ccc(F)cc3)n2)cc1` returned an IC50 of 1510 nM.

`Cc1cc(N[C@@H](Cc2ccccc2)C(=O)Nc2ccccc2)nc(Nc2ccccc2)n1` gave an IC50 of 1010 nM.

With `CC(C)CSc1cc(C(=O)Nc2cc(Cl)ccc2O)ccn1`, the IC50 came out at 670 nM.

In turn, `CC(C)CNCc1cccc(-c2cccc(CN(C(=O)NC3CCCCC3)C3CCN(Cc4ccccc4)CC3)c2)c1` came in with an IC50 of 820 nM.

For the compound `CC(C)COc1ccc(Cl)cc1Cc1nc(-c2nc3ccc(CN(C)C)cc3[nH]2)co1`, the IC50 worked out at 710 nM.

In the case of `CC[C@H]1CN2CCc3cc(OC)c(OC)cc3[C@@H]2C[C@@H]1C[C@H]1NCCc2c1cc(OC)c(OC)c2Br`, the IC50 stood at 650 nM.

For `COc1ccc(CCNCCCCCCNCCCc2ccc(Cl)cc2)cc1OC`, the IC50 came to 950 nM.

The term IC50 denotes the concentration that gives 50% inhibition. Higher therefore signals weaker potency in that assay.
